Measured values taken from patent US10738062B2, “Chromane-substituted tetracyclic compounds and uses thereof for the treatment of viral diseases” (Merck Sharp & Dohme Corp., priority 2016, dated 2020).

Tests used:
Set-up in all cases: species or system Hepatitis C virus
[1] = tested on: HCV replicon 1A; test: Cell-based HCV replicon assay (Replicon Assay A), replicon 1A; conditions: replicon RNA by real time PCR, day 3
Method: (§1) To measure cell-based anti-HCV activity of compounds of the present invention, two complimentary assays were employed using various replicons. In the first assay (“Replicon Assay A”), replicon cells were seeded at 2000 cells/well in 384-well 384-well flat bottom tissue culture treated clear bottom plate (Corning 3707) in the presence of the test compound. Various concentrations of test compound, typically in 10 serial dilutions, were added to the assay mixture, with the starting concentration ranging from 333.3 nM to 1.667 nM. The final concentration of DMSO was 0.5%. Fetal bovine serum was 5%, in the assay media. Cells were harvested on day 3 by removing media and washing the cells with a suitable wash buffer. The cells were lysed with the addition of 1× Qiagen lysis buffer (Cat #1062731). The replicon RNA level was measured using real time PCR (TaqMan® EZ RT-PCR, Applied Biosystems 403028) with the following primers and probes: […]
(§2) Cyclophilin RNA was used as endogenous control and was amplified in the same reaction as NS5B (multiplex PCR). The real-time RT-PCR reactions were run on ABI PRISM 7900HT Sequence Detection System using the following program: 50° C. for 2 minutes, 60° C. for 30 minutes, 95° C. for 5 minutes, 40 cycles of 94° C. for 20 sec, 55° C. for 1 minutes.
(§3) The amount of HCV replicon RNA per cell was quantified using a linear regression curve for a known nanogram (ng) amount of HCV replicon total RNA. This was established by plotting the Cycle Threshold values (Ct) from the Neo probe and primer set versus the log (ng) for each HCV replicon total RNA standard. The amount of HCV RNA for each replicon sample was calculated by taking the sample's Ct value, minus the line intercept, divided by the slope of the line. Similarly, the amount of Cyclophilin mRNA per cell was also quantified using a linear regression curve for a known nanogram (ng) amount of HCV replicon total RNA. Again, this was established by plotting the Cycle Threshold values (Ct) from the Cyclophilin probe and primer set versus the log (ng) for each HCV replicon total RNA standard.
(§4) The real-time RT-PCR reactions were run on ABI PRISM 7900HT or Viia7 Sequence Detection System using the following program: 48° C. for 30 minutes, 95° C. for 10 minutes, 40 cycles of 95° C. for 15 sec, 60° C. for 1 minutes. The 50% effective concentration (EC50) was the drug concentration necessary to achieve an increase in the cycle threshold (CT) of 1 over the projected baseline CT.
(§5) Data was obtained for various compounds of the present invention using the methods described in the Example above, and is presented in the table immediately below. EC50 data for replicons 1A, 1AY93H and 2B were obtained using Replicon Assay A and EC50 data for replicon 1B was obtained using Replicon Assay B.

[2] = tested on: HCV replicon 1B; test: Cell-based HCV replicon assay (Replicon Assay B), replicon 1B; conditions: replicon RNA by real-time PCR, 3 days
Method: In an alternate assay (“Replicon Assay B”), 1000 cells were seeded per well in a 384-well collagen coated black plate from Greiner bio-one (Cat #781946) in 5% FBS. Inhibitors of this invention were added at 24 h post-seeding, and the plates were incubated for 3 days. Cells were subsequently lysed with Qiagen lysis buffer (Cat #1062731) to extract the RNA. HCV replicon RNA level was measured by real-time PCR using the RNA-to-CT kit from Applied Biosystem (Cat #4392656) and genotype-specific primers and probes. The amplicon was located within NS5B. […] (SEQ. ID NO. 2); the probe sequence was FAM-labeled […] (SEQ. ID NO. 3).
The real-time RT-PCR reactions were run on ABI PRISM 7900HT or Viia7 Sequence Detection System using the following program: 48° C. for 30 minutes, 95° C. for 10 minutes, 40 cycles of 95° C. for 15 sec, 60° C. for 1 minutes.
EC50 data for replicons 1A, 1AY93H and 2B were obtained using Replicon Assay A and EC50 data for replicon 1B was obtained using Replicon Assay B.

[3] = tested on: HCV replicon 2B; test: Cell-based HCV replicon assay (Replicon Assay A), replicon 2B; conditions: read-out: EC50 replicon 2B; Replicon Assay A; replicon RNA by real time PCR, day 3
Method: as §1, §2, §3, §4, §5

[4] = tested on: HCV replicon 1A Y93H; test: Cell-based HCV replicon assay (Replicon Assay A), replicon 1AY93H; conditions: read-out: EC50 replicon 1A Y93H; Replicon Assay A; replicon RNA by real time PCR, day 3
Method: as §1, §2, §3, §4, §5

| SMILES | EC50 [1] | EC50 ([2]; Hepatitis C virus, 72 h) | EC50 [3] | EC50 [4] | EC50 [2] | EC50 ([1]; Hepatitis C virus, 72 h) |
| --- | --- | --- | --- | --- | --- | --- |
| COC(=O)N[C@H](C(=O)N1CCC[C@H]1c1ncc(-c2cc(F)c3c(c2)OC(c2ccc4c(c2)OCCC4C)n2c-3cc3cc(-c4cnc([C@@H]5CCCN5C(=O)[C@@H](NC(=O)OC)C(C)C)[nH]4)ccc32)[nH]1)C(C)C (single isomer, unassigned) [Compound 8] | 2.1 pM | 1.1 pM | 41 pM | 38 pM | – | – |
| COC(=O)N[C@H](C(=O)N1CCC[C@H]1c1ncc(-c2cc(F)c3c(c2)OC(c2ccc4c(c2)OCCC4C)n2c-3cc3cc(-c4cnc([C@@H]5CCCN5C(=O)[C@@H](NC(=O)OC)C(C)C)[nH]4)ccc32)[nH]1)C(C)C (single isomer, unassigned) [Compound 10] | 2.4 pM | – | 41 pM | 39 pM | 1.2 pM | – |
| COC(=O)N[C@H](C(=O)N1CCC[C@H]1c1ncc(-c2cc(F)c3c(c2)OC(c2ccc4c(c2)OC(C)CC4)n2c-3cc3cc(-c4cnc([C@@H]5CCCN5C(=O)[C@@H](NC(=O)OC)C(C)C)[nH]4)ccc32)[nH]1)C(C)C (single isomer, unassigned) [Compound 13] | 2.3 pM | 3.2 pM | 144 pM | 106 pM | – | – |
| COC(=O)N[C@H](C(=O)N1CCC[C@H]1c1ncc(-c2cc(F)c3c(c2)OC(c2ccc4c(c2)OC(C)CC4)n2c-3cc3cc(-c4cnc([C@@H]5CCCN5C(=O)[C@@H](NC(=O)OC)C(C)C)[nH]4)ccc32)[nH]1)C(C)C (single isomer, unassigned) [Compound 14] | 1.8 pM | – | 163 pM | 119 pM | 2.6 pM | – |
| COC(=O)N[C@H](C(=O)N1CCC[C@H]1c1ncc(-c2cc(F)c3c(c2)OC(c2ccc4c(c2)OCCC4(F)F)n2c-3cc3cc(-c4cnc([C@@H]5CCCN5C(=O)[C@@H](NC(=O)OC)C(C)C)[nH]4)ccc32)[nH]1)C(C)C (single isomer, unassigned) [Compound 20] | 1.3 pM | 1.4 pM | 40 pM | 67 pM | – | – |
| COC(=O)N[C@H](C(=O)N1CCC[C@H]1c1ncc(-c2cc(F)c3c(c2)OC(c2ccc4c(c2)OC(C)(C)C4)n2c-3cc3cc(-c4cnc([C@@H]5CCCN5C(=O)[C@@H](NC(=O)OC)C(C)C)[nH]4)ccc32)[nH]1)C(C)C (single isomer, unassigned) [Compound 28] | 1.7 pM | 2.1 pM | 105 pM | 32 pM | – | – |
| COC(=O)N[C@H](C(=O)N1CCC[C@H]1c1ncc(-c2cc(F)c3c(c2)OC(c2ccc4c(c2)OCCC4)n2c-3cc3cc(-c4cnc([C@@H]5CCCN5C(=O)[C@@H](NC(=O)OC)C5CCOCC5)[nH]4)ccc32)[nH]1)C(C)C (single isomer, unassigned) [Compound 31] | – | 2.2 pM | 98 pM | 322 pM | – | 1.5 pM |
| COC(=O)N[C@H](C(=O)N1CCC[C@H]1c1ncc(-c2cc(F)c3c(c2)OC(c2ccc4c(c2)OCCC4)n2c-3cc3cc(-c4cnc([C@@H]5CCCN5C(=O)[C@@H](NC(=O)OC)C5CCOCC5)[nH]4)ccc32)[nH]1)C(C)C (single isomer, unassigned) [Compound 32] | 2.6 pM | – | 3 pM | 10 pM | 2.6 pM | – |
| COC(=O)N[C@H](C(=O)N1CCC[C@H]1c1ncc(-c2ccc3c(c2)cc2n3C(c3ccc4c(c3)OCCC4)Oc3cc(-c4cnc([C@@H]5CCCN5C(=O)[C@@H](NC(=O)OC)C5CCOCC5)[nH]4)cc(F)c3-2)[nH]1)C(C)C (single isomer, unassigned) [Compound 33] | – | 2.1 pM | 114 pM | 598 pM | – | 1.8 pM |
